System: MYC mRNA expression in SU-DHL-4 cells
Assay: Suppressive effect on MYC mRNA expression (Test Example 2)
Type: cell-based, human
Conditions: test compound 100 nmol/L, 6 hours, qRT-PCR corrected by ACTB, GAPDH; for Suppression Rate of MYC mRNA Expression (%): HPRT1; for inhibition at 0.1 µM: Homo sapiens, HPRT1, read-out: Suppression Rate of MYC mRNA Expression (%)
Experimental: The cells were passaged twice a week at a volume of 20-40 mL so as to maintain a cell concentration of 1×10^6 cells/mL or less. The cultured SU-DHL-4 cells were seeded at 6×10^5 cells/well in a transparent 6-well plate (Code No. 140675, Thermo Fisher Scientific). After seeding, the cells were precultured at 37° C. in a carbon dioxide gas incubator for 18 to 25 hours. […] At this time, the final concentration of DMSO was adjusted to be 0.1 vol %. After adding the test compound, the cells were cultured at 37° C. in a carbon dioxide gas incubator for 6 hours. Then, the cells were collected by centrifugation and used for extraction of mRNA. mRNA extraction from cells was performed using Maxwell® 16 LEV simplyRNA Purification Kits (Code No. AS1270, Promega). The mRNA recovery protocol was performed according to the manufacturer's recommended protocol attached to the kit. […] The cDNA conversion was performed, according to the manufacturer's recommended protocol attached to the kit, in 0.020 mL of the reaction solution, and GeneAmp® PCR System 9700 (Applied Biosystems) was used. The cDNA-converted sample was diluted 10-fold by adding 0.180 mL of RNase Free Water (Code No. 10977-023, Thermo Fisher Scientific) and used for quantitative real-time polymerase chain reaction (qRT-PCR). For the calibration curve of qRT-PCR, 0.08 mL of RNase Free Water was added to a cDNA sample using DMSO as a test compound for 5-fold dilution. Further, two 5-fold dilutions were prepared stepwise, and these three samples were used as the calibration curve samples. The following reagents were used for qRT-PCR: TaqMan Gene Expression Assays, Inventoried (Primer probe: Code No. 4331182, Thermo Fisher Scientific, Assay ID: (i) MYC: Hs00153408_m1, (ii) ACTB: Hs01060665_g1, (iii) GAPDH: Hs04420697_g1, (iv) HPRT1: […] Universal PCR Master Mix, no AmpEraseR UNG (Master Mix: Code No. 4367846, Thermo Fisher Scientific). Primer probe (0.001 mL), Master Mix (0.010 mL), water (0.004 mL) and the diluted cDNA sample (0.005 mL) were mixed, and qRT-PCR analysis was performed. For qRT-PCR analysis, QuantStudio 7 Flex (Thermo Fisher Scientific) or 7500 Fast Real-Time PCR (Applied Biosystems) was used to measure in Fast mode and analyze. […] Corrected MYC expression=A/B • A: MYC expression level • B: Geometric mean of expression levels of ACTB, GAPDH and HPRT1 Using the corrected values, the suppression rate of MYC expression for the wells to which the test compound was not added was calculated by the following formula. […] Corrected MYC expression level in a well containing test compound • D: Corrected MYC expression level in a well to which test compound was not added

Row | Structure (SMILES) | Suppression Rate of MYC mRNA Expression (%) | inhibition at 0.1 µM [%]
1 | CCC(=O)N1c2ccccc2[C@H](N[C@H]2CC[C@H](NC(=O)C#CCNC(=O)[C@H]3CC[C@H](N[C@@H]4C[C@H](C)N(C(=O)CC)c5ccccc54)CC3)CC2)C[C@@H]1C (relative stereo) [Compound 9d, (1R,4R)-4-(((2S*,4R*)-2-Methyl-1-propionyl-1,2,3,4-tetrahydroquinolin-4-yl)amino)-N-(4-(((1R,4R)-4-(((2S,4R)-2-methyl-1-propionyl-1,2,3,4-tetrahydroquinolin-4-yl)amino)cyclohexyl)amino)-4-oxobut-2-yn-1-yl)cyclohexane-1-carboxamide] | 98.0 | 
2 | CCC(=O)N1c2ccccc2[C@H](Nc2ccc(-n3cc(CNC(=O)N4CCC(N[C@@H]5C[C@H](C)N(C(=O)CC)c6ccccc65)CC4)nn3)cc2)C[C@@H]1C (relative stereo) [Compound 10b, 4-(((2S*,4R*)-2-Methyl-1-propionyl-1,2,3,4-tetrahydroquinolin-4-yl)amino)-N-((1-(4-(((2S,4R)-2-methyl-1-propionyl-1,2,3,4-tetrahydroquinolin-4-yl)amino)phenyl)-1H-1,2,3-triazol-4-yl)methyl)piperidine-1-carboxamide] |  | 96.6
3 | CCC(=O)N1c2ccccc2[C@H](NCc2ccc(C(=O)N3CC(C(=O)Nc4ccc(N[C@@H]5C[C@H](C)N(C(=O)CC)c6ccccc65)cc4)C3)cc2)C[C@@H]1C (relative stereo) [Compound 10g, 1-(4-((((2S*,4R*)-2-Methyl-1-propionyl-1,2,3,4-tetrahydroquinolin-4-yl)amino)methyl)benzoyl)-N-(4-(((2S,4R)-2-methyl-1-propionyl-1,2,3,4-tetrahydroquinolin-4-yl)amino)phenyl)azetidine-3-carboxamide] |  | 97.2
4 | CCC(=O)N1c2ccccc2[C@H](NCCCCC(=O)NCc2cn(-c3ccc(N[C@@H]4C[C@H](C)N(C(=O)CC)c5ccccc54)cc3)nn2)C[C@@H]1C (relative stereo) [Compound 12f, 5-(((2S*,4R*)-2-Methyl-1-propionyl-1,2,3,4-tetrahydroquinolin-4-yl)amino)-N-((1-(4-(((2S,4R)-2-methyl-1-propionyl-1,2,3,4-tetrahydroquinolin-4-yl)amino)phenyl)-1H-1,2,3-triazol-4-yl)methyl)pentane amide] | 97.9 | 
5 | CCC(=O)N1c2ccccc2[C@H](NCCCCCCCC(=O)Nc2ccc(N[C@@H]3C[C@H](C)N(C(=O)CC)c4ccccc43)cc2)C[C@@H]1C (relative stereo) [Compound 12h, 8-(((2S*,4R*)-2-Methyl-1-propionyl-1,2,3,4-tetrahydroquinolin-4-yl)amino)-N-(4-(((2S,4R)-2-methyl-1-propionyl-1,2,3,4-tetrahydroquinolin-4-yl)amino)phenyl)octanamide] |  | 96.5
6 | CCC(=O)N1c2ccccc2[C@H](NCC23CCC(C(=O)N4CC(C(=O)Nc5ccc(N[C@@H]6C[C@H](C)N(C(=O)CC)c7ccccc76)cc5)C4)(CC2)CC3)C[C@@H]1C (relative stereo) [Compound 17o, 1-(4-((((2S,4R)-2-Methyl-1-propionyl-1,2,3,4-tetrahydroquinolin-4-yl)amino)methyl)bicyclo[2.2.2]octane-1-carbonyl)-N-(4-(((2S*,4R*)-2-methyl-1-propionyl-1,2,3,4-tetrahydroquinolin-4-yl)amino)phenyl)azetidine-3-carboxamide] |  | 97.1
7 | Cc1sc2c(c1C)C(c1ccc(C(=O)NCCCNC(=O)c3ccc(C4=N[C@@H](CC(=O)OC(C)(C)C)c5nnc(C)n5-c5sc(C)c(C)c54)cc3)cc1)=N[C@@H](CC(=O)OC(C)(C)C)c1nnc(C)n1-2 [Compound 1b, Di-tert-butyl 2,2′-[(6S,6′S)-({[propane-1,3-diylbis(azanediyl)]bis(carbonyl)}bis(4,1-phenylene))bis(2,3,9-trimethyl-6H-thieno[3,2-f][1,2,4]triazolo[4,3-a][1,4]diazepine-4,6-diyl)]diacetate] |  | 98.4
8 | CCC(=O)N1c2ccccc2[C@H](Nc2ccc(C(=O)N3CC4CC3CN4C(=O)c3ccc(N[C@@H]4C[C@H](C)N(C(=O)CC)c5ccccc54)cc3)cc2)C[C@@H]1C [Compound 1k, 1,1′-{(2S,2'S,4R,4′R)-{[(2,5-Diazabicyclo[2.2.1]heptane-2,5-dicarbonyl)bis(4,1-phenylene)]bis(azanediyl)}bis[2-methyl-3,4-dihydroquinoline-4,1(2H)-diyl]}bis(propan-1-one)] |  | 98.6
9 | CCC(=O)N1c2ccccc2[C@H](Nc2ccc(C(=O)NCC(=O)CNC(=O)c3ccc(N[C@@H]4C[C@H](C)N(C(=O)CC)c5ccccc54)cc3)cc2)C[C@@H]1C [Compound 1l, N,N′-(2-Oxopropane-1,3-diyl)bis(4-{[(2S,4R)-2-methyl-1-propionyl-1,2,3,4-tetrahydroquinolin-4-yl]amino}benzamide)] |  | 98.5
10 | CCC(=O)N1c2ccccc2[C@H](Nc2ccc(C(=O)NCc3cn(-c4ccc(N[C@@H]5C[C@H](C)N(C(=O)CC)c6ccccc65)cc4)nn3)cc2)C[C@@H]1C [Compound 3a, 4-{[(2S,4R)-2-Methyl-1-propionyl-1,2,3,4-tetrahydroquinolin-4-yl]amino}-N-{[1-(4-{[(2S,4R)-2-methyl-1-propionyl-1,2,3,4-tetrahydroquinolin-4-yl]amino}phenyl)-1H-1,2,3-triazol-4-yl]methyl}benzamide] |  | 98.1
11 | CCC(=O)N1c2ccccc2[C@H](Nc2ccc(C(=O)N3CCn4c(-c5ccc(N[C@@H]6C[C@H](C)N(C(=O)CC)c7ccccc76)cc5)cnc4C3)cc2)C[C@@H]1C [Compound 3e, 1-[(2S,4R)-2-Methyl-4-({4-[3-(4-{[(2S,4R)-2-methyl-1-propionyl-1,2,3,4-tetrahydroquinolin-4-yl]amino}phenyl)-5,6,7,8-tetrahydroimidazo[1,2-a]pyrazine-7-carbonyl]phenyl}amino)-3,4-dihydroquinolin-1(2H)-yl]propan-1-one] |  | 98.3
12 | CCC(=O)N1c2ccccc2[C@H](Nc2ccc(C(=O)NCCNS(=O)(=O)c3ccc(N[C@@H]4C[C@H](C)N(C(=O)CC)c5ccccc54)cc3)cc2)C[C@@H]1C [Compound 4d, 4-{[(2S,4R)-2-Methyl-1-propionyl-1,2,3,4-tetrahydroquinolin-4-yl]amino}-N-{2-[(4-{[(2S,4R)-2-methyl-1-propionyl-1,2,3,4-tetrahydroquinolin-4-yl]amino}phenyl)sulfonamide]ethyl}benzamide] | 98.3 | 
13 | CCC(=O)N1c2ccccc2[C@H](Nc2ccc(NC(=O)CNCC(=O)Nc3ccc(N[C@@H]4C[C@H](C)N(C(=O)CC)c5ccccc54)cc3)cc2)C[C@@H]1C [Compound 5d, 2,2′-Azanediylbis(N-(4-(((2S,4R)-2-methyl-1-propionyl-1,2,3,4-tetrahydroquinolin-4-yl)amino)phenyl)acetamide)] |  | 97.5
14 | CCC(=O)N1c2ccccc2[C@H](Nc2ccc(CNCc3cn(-c4ccc(N[C@@H]5C[C@H](C)N(C(=O)CC)c6ccccc65)cc4)nn3)cc2)C[C@@H]1C [Compound 5h, 1-((2S,4R)-2-Methyl-4-((4-((((1-(4-(((2S,4R)-2-methyl-1-propionyl-1,2,3,4-tetrahydroquinolin-4-yl)amino)phenyl)-1H-1,2,3-triazol-4-yl)methyl)amino)methyl)phenyl)amino)-3,4-dihydroquinolin-1(2H)-yl)propan-1-one] |  | 97.3
15 | CCC(=O)N1c2ccccc2[C@H](Nc2ccc(Cn3cc(C(=O)Nc4ccc(N[C@@H]5C[C@H](C)N(C(=O)CC)c6ccccc65)cc4)nn3)cc2)C[C@@H]1C [Compound 5j, 1-(4-(((2S,4R)-2-Methyl-1-propionyl-1,2,3,4-tetrahydroquinolin-4-yl)amino)benzyl)-N-(4-(((2S,4R)-2-methyl-1-propionyl-1,2,3,4-tetrahydroquinolin-4-yl)amino)phenyl)-1H-1,2,3-triazolee-4-carboxamide] | 96.8 | 
